Results from ChEMBL document CHEMBL1139112, “Solid-phase analogue synthesis of caspase-3 inhibitors via palladium-catalyzed amination of 3-bromopyrazinones” (Bioorg Med Chem Lett, 2007).

Columns and labels:
Caspase-1 = target: T1, Caspase-1 (Homo sapiens, UniProt P29466); experiment: Inhibition of human recombinant caspase 1
T1 sequence (P29466 whole entry): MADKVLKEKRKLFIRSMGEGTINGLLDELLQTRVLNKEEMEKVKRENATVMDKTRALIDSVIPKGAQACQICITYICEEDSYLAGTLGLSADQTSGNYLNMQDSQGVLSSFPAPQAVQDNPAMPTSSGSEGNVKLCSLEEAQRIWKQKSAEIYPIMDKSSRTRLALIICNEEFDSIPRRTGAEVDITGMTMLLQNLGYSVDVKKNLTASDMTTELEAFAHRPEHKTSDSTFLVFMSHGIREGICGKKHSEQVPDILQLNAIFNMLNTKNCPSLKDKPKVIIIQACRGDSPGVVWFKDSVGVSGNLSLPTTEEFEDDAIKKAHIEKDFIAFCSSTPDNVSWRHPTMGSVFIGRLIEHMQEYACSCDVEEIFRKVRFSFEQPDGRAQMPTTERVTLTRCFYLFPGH

Caspase-7 = target: T2, Caspase-7 (Homo sapiens, UniProt P55210); experiment: Inhibition of human recombinant caspase 7
T2 sequence (P55210 whole entry): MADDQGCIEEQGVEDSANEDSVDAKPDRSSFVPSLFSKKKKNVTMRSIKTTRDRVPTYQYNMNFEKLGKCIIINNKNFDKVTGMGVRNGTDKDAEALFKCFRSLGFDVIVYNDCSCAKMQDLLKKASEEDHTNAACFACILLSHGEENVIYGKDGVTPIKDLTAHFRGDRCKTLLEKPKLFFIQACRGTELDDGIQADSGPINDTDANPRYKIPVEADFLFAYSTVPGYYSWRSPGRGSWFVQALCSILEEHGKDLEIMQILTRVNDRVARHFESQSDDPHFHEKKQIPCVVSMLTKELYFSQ

Caspase-8 = Caspase-8 (Homo sapiens, UniProt Q14790); experiment: Inhibition of human recombinant caspase 8
Caspase-3 [1] = target: T3, Caspase-3 (Homo sapiens, UniProt P42574); experiment: Inhibition of human recombinant caspase 3
T3 sequence (P42574 whole entry): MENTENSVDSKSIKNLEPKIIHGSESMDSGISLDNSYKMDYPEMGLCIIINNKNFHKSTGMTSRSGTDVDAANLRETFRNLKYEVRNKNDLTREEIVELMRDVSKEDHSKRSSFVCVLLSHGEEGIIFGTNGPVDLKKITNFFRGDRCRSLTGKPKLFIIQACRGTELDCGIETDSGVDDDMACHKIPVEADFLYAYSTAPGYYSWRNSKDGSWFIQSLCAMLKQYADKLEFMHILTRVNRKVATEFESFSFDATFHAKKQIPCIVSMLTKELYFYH

Caspase-3 [2] = target: T3, Caspase-3; experiment: Inhibition of human recombinant caspase 3 in NT2 by whole cell assay

Caspase-8, sequence (Q14790 217-374 limits assumed): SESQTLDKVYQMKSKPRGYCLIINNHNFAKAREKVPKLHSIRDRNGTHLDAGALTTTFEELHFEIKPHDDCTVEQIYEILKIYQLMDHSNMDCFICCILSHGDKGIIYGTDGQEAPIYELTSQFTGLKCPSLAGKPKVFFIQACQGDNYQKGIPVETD
Caspase-8, sequence (Q14790 385-479 limits assumed): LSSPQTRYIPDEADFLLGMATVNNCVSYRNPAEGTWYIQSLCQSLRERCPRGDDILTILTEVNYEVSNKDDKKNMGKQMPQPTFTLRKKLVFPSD

CCC(C(=O)N[C@@H](CC(=O)O)C(=O)CCCc1ccccc1)n1cc(C(C)(C)C)nc(NCc2cc(OC)cc(OC)c2)c1=O (stereo partly specified)
IC50 (Caspase-1): 320 nM
IC50 (Caspase-7): 800 nM
IC50 (Caspase-8): 3050 nM
IC50 (Caspase-3 [1]): 160 nM

CCC(C(=O)N[C@@H](CC(=O)O)C(=O)CCCc1ccccc1)n1cc(C(C)(C)C)nc(Nc2ccc3c(c2)OCCO3)c1=O (stereo partly specified)
IC50 (Caspase-1): 330 nM
IC50 (Caspase-7): 280 nM
IC50 (Caspase-8): 1000 nM
IC50 (Caspase-3 [1]): 28 nM

CCCCCCN(C)CC(=O)[C@H](CC(=O)O)NC(=O)C(CC)n1cc(C(C)(C)C)nc(Nc2nnn[nH]2)c1=O (stereo partly specified)
IC50 (Caspase-1): 3.4 nM
IC50 (Caspase-7): 64.7 nM
IC50 (Caspase-8): 163 nM
IC50 (Caspase-3 [2]): 6070 nM
IC50 (Caspase-3 [1]): 6.6 nM

CCC(C(=O)N[C@@H](CC(=O)O)C(=O)CCCc1ccccc1)n1cc(C(C)(C)C)nc(Nc2nnn[nH]2)c1=O (stereo partly specified)
IC50 (Caspase-1): 9 nM
IC50 (Caspase-7): 8 nM
IC50 (Caspase-8): 14 nM
IC50 (Caspase-3 [2]): 19400 nM
IC50 (Caspase-3 [1]): 5 nM

CCC(C(=O)N[C@@H](CC(=O)O)C(=O)CCCc1ccccc1)n1cc(C(C)(C)C)nc(NCCc2cccs2)c1=O (stereo partly specified)
IC50 (Caspase-1): 2310 nM
IC50 (Caspase-7): 920 nM
IC50 (Caspase-8): 300 nM
IC50 (Caspase-3 [1]): 50 nM

CCC(C(=O)N[C@@H](CC(=O)O)C(=O)CCCc1ccccc1)n1cc(C(C)(C)C)nc(NC(CC(C)C)C(=O)O)c1=O (stereo partly specified)
IC50 (Caspase-1): 5490 nM
IC50 (Caspase-7): 3490 nM
IC50 (Caspase-8): > 10000 nM
IC50 (Caspase-3 [1]): 100 nM
